# Reference: a melting point compilation (Tetko et al.; mined from patent text by program, amines drawn as free bases though some values may be those of a salt)
row,melting point,SMILES
1,137 °C,COc1ccc(Cl)cc1C(C)(C)c1cc(Cl)ccc1O
2,109 to 110 °C,O=C(O)CCCCCCCCCCCCCCC(=O)ON1C(=O)c2ccccc2C1=O
3,264 to 269 °C,NCc1ccc(-n2c(-c3cccnc3N)nc3ccc(-c4cn[nH]c4)nc32)cc1
4,169 to 170 °C,CCC(CC)N(O)C(=O)Nc1ccc([N+](=O)[O-])cc1
5,98 to 99 °C,CNCc1cn(S(=O)(=O)c2cccnc2)c(-c2ccccc2)c1F
6,242 °C,Cc1cc2ccccc2c(C2CC(=O)C=C(O)C2)c1C (stereo not drawn)
7,282 to 287 °C,O=S1(=O)c2ccccc2N(c2ccccc2O)c2ccccc21
8,311 to 312 °C,COc1cc2cc3c(=O)nc[nH]c3nc2cc1OC
9,165 to 166 °C,CCOc1ccc2[nH]cc(CC(C)(N)C(=O)OC)c2c1 (racemic)
10,199 to 200 °C,COc1nccc2c(=O)n(C)c(N3C=CC(OC4CCN(C5CCC5)CC4)=NC3)nc12
11,265 °C,COc1cc(-c2ccc(Cl)cc2)nc2c(C(=O)Nc3cccc(S(C)(=O)=O)c3)cnn12
12,130 °C,Nc1cc(=O)n(Cc2cccc(C(F)(F)F)c2)[nH]1
13,126 to 127 °C,CC1(C)CC(C)(C)CC(O)(C#Cc2ccccn2)C1
14,178 °C,CC(=O)Nc1cccc(Oc2ccn3nc(-c4ccccc4)c(-c4ccc(=O)n(C(C)C)n4)c3c2)c1
15,86 to 87 °C,CCCCCCCCCCNC1=CC(=O)c2c(OC)ccc(OC)c2C1=O
16,130 °C,CC1(C)CC(=O)N(CCOC(OCCN2C(=O)CC(C)(C)CC2=O)(C(=O)c2ccccc2)c2ccccc2)C(=O)C1
17,100 to 101 °C,OCc1ccc(-c2ccc(F)cn2)cc1
18,136 °C,CCOc1ccc(C=CC(=O)c2c(O)cc(OC)cc2OC)cc1
19,192 to 194 °C,COc1cc(CCNC(=O)c2cccnc2)ccc1O
20,167 to 168 °C,CC1(C)CC(=O)CC(C)(P(=O)(O)O)C1 (stereo not drawn)
21,220 to 221 °C,CC1CC(=O)NN=C1c1ccc(N2CCN(Cc3ccccc3)CC2)c([N+](=O)[O-])c1 (stereo not drawn)
22,132 to 139 °C,Fc1ccc(-c2ccn(C3CCN(Cc4ccccc4)CC3)c2-c2ccncc2)cc1
23,109 to 111 °C,CCC(CC)Nc1nc(NC(C)=O)nc(C(C)(C)F)n1
24,159 to 161 °C,O=[N+]([O-])c1cnc(Nc2ccccc2F)c([N+](=O)[O-])c1
25,117 to 121 °C,COC(CN(C)C(=O)Nc1nnc(C(C)Oc2ccccc2)s1)OC (stereo not drawn)
26,327 to 332 °C,N#Cc1cccc2c1NC(=O)C2c1ncnc2c1cnn2C1CCCC1 (stereo not drawn)

row,melting point,SMILES
1,158 to 159 °C,CC1CC(C)(C)Nc2ccc3c(c21)C(c1ccc(Cl)cc1)Oc1ccccc1-3 (stereo not drawn)
2,177 to 178 °C,CCCc1nc2c(N)nc3ccccc3c2n1CCC(=O)NC
3,118 °C,CC(Cn1cc(-c2ccccc2)c2ccccc2c1=O)NCc1ccccc1 (stereo not drawn)
4,178 °C,CCC(=NNC(=O)c1ccccc1)c1ccncc1
5,171 to 174 °C,N#CC(N=Cc1ccc([N+](=O)[O-])cc1)=C(Cl)Cl
6,178 °C,C=COC(=O)N1C[C@@H]2C(=O)CCC(c3ccccc3)(c3ccccc3)[C@@H]2C1 (racemic)
7,215 to 217 °C,CC(C)c1cc(-c2ccc(F)cc2)nc(O)n1
8,181 to 182 °C,COc1cc(C)c(NC(=O)CC(C)(C)C)c(C)c1Cc1ccc(C(C)C)cc1
9,150 to 154 °C,CCOc1ccc(CN2CCc3cc(O)ccc3C2)cc1OCC
10,87 to 89 °C,CCOC(C)n1c(C)nc(-c2ccccc2)c1-c1ccccc1 (stereo not drawn)
11,108 to 110 °C,CC(C)n1nc(-c2sc(NC(=O)c3ccc(CNCCCN(C)C)cc3)nc2-c2ccccc2)ccc1=O
12,165 to 168 °C,COC(=O)N1CSC(=Cc2cc(C(C)(C)C)c(O)c(C(C)(C)C)c2)C1=O
13,70 to 72 °C,O=Cc1ccc(CCCCCCCC(=O)O)o1
14,185 to 187 °C,O=C1CCC(c2ccncc2)=NN1
15,> 275 °C,CS(=O)(=O)c1ccc(-c2cc(-c3nc4ccccc4c(=O)n3-c3ccccc3)sc2N2CCOCC2)cc1
16,80 to 86 °C,Cc1occ2c1-c1ccccc1C(=C1CCN(C)CC1)c1ccccc1-2
17,128 to 130 °C,CC(C)N(CCCCOCC(=O)O)c1nnc(-c2ccccc2)c(-c2ccccc2)n1
18,110 to 112 °C,CCC(C)Cn1c(=O)n(C)c(=O)c2c1nc(C)n2C(=O)OC (stereo not drawn)
19,78 to 80 °C,C#Cc1cnc2ccc(OC(SC)C(=O)NC(C)(C#N)CO)cc2c1 (stereo not drawn)
20,217 to 221 °C,O=C(O)/C=C/c1cn(-c2cc(C(F)(F)F)cc(C(F)(F)F)c2)nc1-c1cccc(Cl)c1
21,148 to 150 °C,CC(C)(C)OC(=O)NCCNC(=O)c1cocn1
22,198 to 200 °C,CC1Oc2ccc(C(=O)CCC(=O)O)cc2NC1=O (stereo not drawn)
23,188 to 189 °C,CCc1cc(C#N)cc2c(NCc3ccc(OC)c(Cl)c3)c(CO)cnc12
24,78 to 81 °C,O=C(CC1CSCCC1=O)c1ccc(Cl)cc1 (stereo not drawn)
25,122 °C,"O=C(NC(CS)Cc1ccccc1)N1CCN(c2ccccc2)CC1 (single isomer, unassigned; (+))"
26,202 to 207 °C,Cc1ccc(=O)[nH]c1C

# Continued, compound first:
row,SMILES,melting point
1,CCC(C)n1ncn(-c2ccc(N3CCN(c4ccc(OCC(O)(Cn5cncn5)c5ccc(Cl)cc5Cl)cc4)CC3)cn2)c1=O (stereo not drawn),144 to 145 °C
2,COc1ccc2c(c1)C(=O)Cc1c(C#N)cccc1S2,186 to 187 °C
3,COc1cc2c(cc1OC)CN(CC(O)COc1ccc(N)cc1)CC2 (stereo not drawn),106 °C
4,COc1ccc(C2=NN(CC(=O)c3ccccc3)C(=O)[C@H]3CCCC[C@@H]23)cc1OC (relative stereo),133 to 135 °C
5,COC1CCN(c2nnc(-c3ccc(C)cc3)c(-c3ccc(C)cc3)n2)CC1,120 to 121 °C
6,CCOCC1COc2ccc(N)cc2O1 (stereo not drawn),103 to 106 °C
7,COc1ccc(N(CCCC(=O)O)C(=O)C(C)N(C(=O)c2cccc(C(F)(F)F)c2)c2ccc(OC)cc2)cc1 (stereo not drawn),119 to 121 °C
8,COC(=O)C(NS(=O)(=O)c1ccc(-c2ccc(NC(=O)c3oc4cccc(C(C)OC)c4c3C)cc2)cc1)C(C)C (stereo not drawn),186 to 188 °C
9,CN1CCC(Oc2ccc([N+](=O)[O-])cc2)(c2ccccc2)CC1,136 to 138 °C
10,CC(C)Cn1cnc2c(N)nc3ccc(CCCN4CCCC4=O)cc3c21,174 to 175 °C
11,CCn1c(-c2cccnc2)nc(-c2ccncc2)c1-c1ccc(Cl)cc1,248 to 250 °C
12,O=C(O)CNC(=O)CCCCc1ccccc1,93 to 96 °C
13,Cc1ccccc1CC(=NC#N)NC(NC(=O)Cc1ccc2c(c1)OCO2)C(C)(C)C (stereo not drawn),167 to 169 °C
14,O=C1Cc2cccc(C(=O)c3ccc(Cl)cc3)c2N1,186 °C
15,CN1Cc2ccccc2[C@H]2c3cccc4c3c(cn4C)C[C@@H]21 (relative stereo),184 to 185 °C
16,COc1ccc(-c2nc3c(N)cccc3n2Cc2c(F)cccc2F)c(F)c1,200 to 202 °C
17,COC(C)C(O)(Cc1ccc(Cl)cc1Cl)c1cccnc1 (stereo not drawn),94 to 95 °C
18,Nc1nc2c(s1)CC(CNC(=O)[C@@H]1CCCN1C(=O)[C@@H](CC1CCCCC1)NS(=O)(=O)Cc1ccccc1)CC2 (stereo partly drawn),203 to 205 °C
19,CCN(CC)CCNC(=O)c1cc(F)c2cc(I)ccc2n1,58 to 60 °C
20,Cc1ncn(C(=O)Nc2cc(Cl)cc(Cl)c2)c1Cl,137 to 139 °C
21,CCCc1ccc(S(=O)(=O)Nc2ccc3nc(C)oc3c2)cc1,102 °C
22,Cc1c(F)c(F)c(COC(=O)C(c2cnc(C(C)(C)C)nc2)C(C)(C)C)c(F)c1F (racemic),91 °C
23,COc1cc2oc(=O)c(CCN3CCN(c4ccccc4)CC3)c(C)c2c(OC)c1OC,136 to 137 °C

row,SMILES,melting point
1,Cc1c(Nc2ccc(Br)cc2C(=O)O)cccc1C(F)(F)F,223 to 225 °C
2,CC(=O)c1c(-c2ccnc3ccccc23)[nH]c(-c2ccnc3ccccc23)c1C,> 260 °C
3,COC(=O)C(C)(C)OCc1cc(-c2ccc(Cl)s2)no1,128 to 130 °C
4,CON1CCn2c(OC(=O)C(C)(C)C)c(-c3c(C)cc(C)cc3C)c(=O)n2CC1,147 to 148 °C
5,Cc1cc(Br)cc(C=NO)c1,128 to 129 °C
6,c1ccc2[nH]c(CCC(CCCc3[nH]c4ccccc4c3CCN3CCCCC3)CCN3CCCCC3)cc2c1 (stereo not drawn),79 to 83 °C
7,CCOC(=O)c1cccn2c(C(=O)OCC)c(Cl)nc12,105 to 106 °C
8,CC(=O)OC1CSC(Oc2cncc(-c3ccc(C#N)c(Cl)c3)c2)C(OC(C)=O)C1OC(C)=O (stereo not drawn),148 to 150 °C
9,CCc1cn(C2CC(O)C(CN=[N+]=[N-])O2)c(=O)[nH]c1=O (stereo not drawn),174 to 177 °C
10,CN1CC(CNC(=N)NC(=O)c2cncc(Br)c2)CC2c3cccc4c3c(cn4C)CC21 (stereo not drawn),140 to 142 °C
11,CSCCCC1(C(=S)N[C@@H](Cc2ccc(NC(=O)c3c(Cl)cccc3Cl)cc2)C(=O)O)CCC1,186 to 188 °C
12,CC1(C)CC(N2CCCCCC2=O)CC(C)(C)N1CCO,141 to 142 °C
13,N#Cc1c(C(F)(F)F)cc(N(Cc2ccccn2)Cc2ccccn2)cc1C(F)(F)F,122 °C
14,C#CC1(O)C(C)CC2C3CCC4=CC(=O)CCC4(C)C3=CCC21C (stereo not drawn),213 to 218 °C
15,CCC1(C)C(=O)N(C(C)C)CC(C)(C)N1OC(C)(C)C#N (stereo not drawn),106 to 108 °C
16,CC1CCc2c(N3CCN(Cc4ccc(N)cc4)CC3)c(F)cc3c(=O)c(C(=O)O)cn1c23 (stereo not drawn),216 to 218 °C
17,Clc1ccccc1N1CCN=C1C(Cn1ccnc1)c1ccccc1 (stereo not drawn),118 to 122 °C
18,COCC(=O)COc1c([N+](=O)[O-])ccc(F)c1F,39 to 42 °C
19,O=C(NC1CCCc2ccccc21)c1ccc2n1Cc1ccccc1N(C(=O)CSc1ccc(Br)cc1)C2 (stereo not drawn),163 to 165 °C
20,O=C(Nc1nccs1)c1nc(-c2cccc3ccccc23)[nH]c1-c1ccc(CO)cc1,226 to 228 °C
21,COc1ccc(C(=O)N2CCCCC2)c(NC(=O)N[C@@H](Cc2ccc(NC(=O)c3c(Cl)cccc3Cl)cc2)C(=O)O)c1,176 °C
22,CN1CC(CNCCC#N)CC2c3cccc4[nH]cc(c34)CC21 (stereo not drawn),169 to 171 °C
23,Nc1sc(/C=C/Cc2ccc(Cl)cc2)c(CN(C2CCCCC2)C2CCCCC2)c1C(=O)c1ccc(Cl)cc1,143 to 146 °C
